# According to article PMC5218480 (PLoS ONE, 2017):
# System: MV-4-11 cells
# Assay: Gene expression microarray analysis (Affymetrix PrimeView) and GSEA
# Format: cell-based, human
# Set-up: RFU PODN (11730768_x_at) / Fold change /veh PODN (11730768_x_at) / RFU LINC00158 (11744669_a_at) / Fold change /veh LINC00158 (11744669_a_at) / RFU DUSP10 (11751237_a_at) / Fold change /veh DUSP10 (11751237_a_at) / RFU ID3 (11757404_x_at) / Fold change /veh ID3 (11757404_x_at) / RFU PLEKHG5 (11737974_s_at) / Fold change /veh PLEKHG5 (11737974_s_at) / RFU LRRC4B (11730491_at) / Fold change /veh LRRC4B (11730491_at) / RFU GIMAP4 (11747438_a_at) / Fold change /veh GIMAP4 (11747438_a_at) / RFU KRT8 (11758183_x_at) / Fold change /veh KRT8 (11758183_x_at) / RFU CNN1 (11734310_a_at) / Fold change /veh CNN1 (11734310_a_at) / RFU VPS37D (11726825_at) / Fold change /veh VPS37D (11726825_at) / RFU C10orf10 (11716522_x_at) / Fold change /veh C10orf10 (11716522_x_at) / RFU KIR2DL2 /// KIR2DL4 /// KIR2DL5A /// KIR2DL5B /// KIR2DS1 /// KIR2DS2 /// KIR2DS3 /// KIR2DS4 /// KIR3DL3 /// KIR3DL3 /// KIR3DS1 (11738374_at) / Fold change /veh KIR2DL2 /// KIR2DL4 /// KIR2DL5A /// KIR2DL5B /// KIR2DS1 /// KIR2DS2 /// KIR2DS3 /// KIR2DS4 /// KIR3DL3 /// KIR3DL3 /// KIR3DS1 (11738374_at) / RFU C1QL1 (11718748_at) / Fold change /veh C1QL1 (11718748_at) / RFU TMPRSS4 (11747572_a_at) / Fold change /veh TMPRSS4 (11747572_a_at) / RFU HAMP (11756126_x_at) / Fold change /veh HAMP (11756126_x_at) / RFU RNFT2 (11725882_a_at) / Fold change /veh RNFT2 (11725882_a_at) / RFU NR4A2 (11747474_a_at) / Fold change /veh NR4A2 (11747474_a_at) / RFU ABCC12 (11746883_a_at) / Fold change /veh ABCC12 (11746883_a_at) / RFU TMEM136 (11760407_x_at) / Fold change /veh TMEM136 (11760407_x_at) / RFU CLDN22 /// WWC2 (11732394_at) / Fold change /veh CLDN22 /// WWC2 (11732394_at) / RFU HLA-DPB1 (11760878_x_at) / Fold change /veh HLA-DPB1 (11760878_x_at) / RFU SPINT1 (11716480_a_at) / Fold change /veh SPINT1 (11716480_a_at) / RFU GAP43 (11754022_s_at) / Fold change /veh GAP43 (11754022_s_at) / RFU A4GNT (11735810_at) / Fold change /veh A4GNT (11735810_at) / RFU PRB3 (11715151_x_at) / Fold change /veh PRB3 (11715151_x_at) / RFU TUBB4B (11761932_at) / Fold change /veh TUBB4B (11761932_at) / RFU CAPN14 (11732068_a_at) / Fold change /veh CAPN14 (11732068_a_at) / RFU TMCC2 (11721928_a_at) / Fold change /veh TMCC2 (11721928_a_at) / RFU IRGQ (11745062_a_at) / Fold change /veh IRGQ (11745062_a_at) / RFU FAM174B (11720279_a_at) / Fold change /veh FAM174B (11720279_a_at) / RFU TMPRSS4 (11748680_a_at) / Fold change /veh TMPRSS4 (11748680_a_at) / RFU FAM212B (11763350_a_at) / Fold change /veh FAM212B (11763350_a_at) / RFU PLEKHG5 (11743358_a_at) / Fold change /veh PLEKHG5 (11743358_a_at) / RFU ZSCAN30 (11745921_a_at) / Fold change /veh ZSCAN30 (11745921_a_at) / RFU CMKLR1 (11741424_a_at) / Fold change /veh CMKLR1 (11741424_a_at) / RFU LOC101060620 /// MAPK8IP1 (11723275_at) / Fold change /veh LOC101060620 /// MAPK8IP1 (11723275_at) / RFU SPTSSB (11747773_x_at) / Fold change /veh SPTSSB (11747773_x_at) / RFU PRSS12 (11739890_at) / Fold change /veh PRSS12 (11739890_at) / RFU BIN1 (11741810_x_at) / Fold change /veh BIN1 (11741810_x_at) / RFU WNT11 (11732464_a_at) / Fold change /veh WNT11 (11732464_a_at) / RFU C10orf10 (11716521_a_at) / Fold change /veh C10orf10 (11716521_a_at) / RFU C5orf56 (11738089_at) / Fold change /veh C5orf56 (11738089_at) / RFU CYB561 (11721691_x_at) / Fold change /veh CYB561 (11721691_x_at) / RFU ANKRD19P (11752326_a_at) / Fold change /veh ANKRD19P (11752326_a_at) / RFU OR2T12 /// OR2T33 /// OR2T8 (11738714_s_at) / Fold change /veh OR2T12 /// OR2T33 /// OR2T8 (11738714_s_at) / RFU VCAN (11748164_a_at) / Fold change /veh VCAN (11748164_a_at) / RFU JSRP1 (11732532_at) / Fold change /veh JSRP1 (11732532_at) / RFU KRTAP10-11 (11738290_x_at) / Fold change /veh KRTAP10-11 (11738290_x_at) / RFU MYO3A (11730013_a_at) / Fold change /veh MYO3A (11730013_a_at) / RFU EBF3 (11725865_a_at) / Fold change /veh EBF3 (11725865_a_at) / RFU CAMK2N1 (11719241_x_at) / Fold change /veh CAMK2N1 (11719241_x_at) / RFU C5orf56 (11738088_a_at) / Fold change /veh C5orf56 (11738088_a_at) / RFU OLFML3 (11715873_a_at) / Fold change /veh OLFML3 (11715873_a_at) / RFU LOC100653217 /// NTM (11731650_a_at) / Fold change /veh LOC100653217 /// NTM (11731650_a_at) / RFU MAPK11 (11762145_a_at) / Fold change /veh MAPK11 (11762145_a_at) / RFU FIZ1 (11724087_x_at) / Fold change /veh FIZ1 (11724087_x_at) / RFU OASL (11726364_x_at) / Fold change /veh OASL (11726364_x_at) / RFU SOX15 (11748057_x_at) / Fold change /veh SOX15 (11748057_x_at) / RFU CD79A (11719716_a_at) / Fold change /veh CD79A (11719716_a_at) / RFU HIST1H1D (11736915_at) / Fold change /veh HIST1H1D (11736915_at) / RFU CASKIN2 (11723855_a_at) / Fold change /veh CASKIN2 (11723855_a_at) / RFU LOC730098 (11760151_x_at) / Fold change /veh LOC730098 (11760151_x_at) / RFU OR4N2 (11742367_at) / Fold change /veh OR4N2 (11742367_at) / RFU PRRT2 (11749266_a_at) / Fold change /veh PRRT2 (11749266_a_at) / RFU SNX32 (11753110_a_at) / Fold change /veh SNX32 (11753110_a_at) / RFU CDHR5 (11726645_a_at) / Fold change /veh CDHR5 (11726645_a_at) / RFU RCAN1 (11760418_a_at) / Fold change /veh RCAN1 (11760418_a_at) / RFU FAM167A (11723789_a_at) / Fold change /veh FAM167A (11723789_a_at) / RFU FAM26E (11764081_at) / Fold change /veh FAM26E (11764081_at) / RFU ISYNA1 (11749810_s_at) / Fold change /veh ISYNA1 (11749810_s_at) / RFU ACY1 (11761880_at) / Fold change /veh ACY1 (11761880_at) / RFU 11764098_at / Fold change /veh 11764098_at / RFU SAMD14 (11745864_x_at) / Fold change /veh SAMD14 (11745864_x_at) / RFU NPB (11741838_a_at) / Fold change /veh NPB (11741838_a_at) / RFU TMPRSS6 (11731388_a_at) / Fold change /veh TMPRSS6 (11731388_a_at) / RFU KRTAP10-2 (11738614_at) / Fold change /veh KRTAP10-2 (11738614_at) / RFU ARHGAP8 /// PRR5-ARHGAP8 (11727945_x_at) / Fold change /veh ARHGAP8 /// PRR5-ARHGAP8 (11727945_x_at) / RFU KRTAP5-7 /// NADSYN1 (11734609_at) / Fold change /veh KRTAP5-7 /// NADSYN1 (11734609_at) / RFU RASL12 (11751679_a_at) / Fold change /veh RASL12 (11751679_a_at) / RFU CDKN2B (11736163_a_at) / Fold change /veh CDKN2B (11736163_a_at) / RFU PRF1 (11729649_at) / Fold change /veh PRF1 (11729649_at) / RFU, ZNF638 /// ZNF638-IT1 / Fold change vs veh, ZNF638 /// ZNF638-IT1 / RFU, PANK3 / Fold change vs veh, PANK3 / RFU, SH3YL1 / Fold change vs veh, SH3YL1 / RFU, ZEB2 / Fold change vs veh, ZEB2 / RFU, NRIP1 / Fold change vs veh, NRIP1 / RFU, PTTG1IP / Fold change vs veh, PTTG1IP / RFU, CAPN2 / Fold change vs veh, CAPN2 / RFU, MED14 / Fold change vs veh, MED14 / RFU, SNORA58 / Fold change vs veh, SNORA58 / RFU, C1orf63 / Fold change vs veh, C1orf63 / RFU, LRRFIP1 / Fold change vs veh, LRRFIP1 / RFU, NDUFAF7 / Fold change vs veh, NDUFAF7 / RFU, SLC12A2 / Fold change vs veh, SLC12A2 / RFU, IBTK / Fold change vs veh, IBTK / RFU, ESF1 / Fold change vs veh, ESF1 / Fold change vs veh, TMEM50B / RFU, TAOK1 / Fold change vs veh, TAOK1 / RFU, ACBD3 / Fold change vs veh, ACBD3 / RFU, TMA16 / Fold change vs veh, TMA16 / RFU, RWDD3 / Fold change vs veh, RWDD3 / RFU, BCAT1 / Fold change vs veh, BCAT1 / RFU, EDEM3 / Fold change vs veh, EDEM3 / RFU, TMEM33 / Fold change vs veh, TMEM33 / RFU, WDR75 / Fold change vs veh, WDR75 / RFU, AHCTF1 / Fold change vs veh, AHCTF1 / RFU, TFRC / Fold change vs veh, TFRC / RFU, ZDHHC17 / Fold change vs veh, ZDHHC17 / RFU, NOM1 / Fold change vs veh, NOM1 / RFU, ARL8B / Fold change vs veh, ARL8B / RFU, ZBTB11 / Fold change vs veh, ZBTB11 / RFU, TAMM41 / Fold change vs veh, TAMM41 / RFU, KIAA1704 /// LOC100996395 / Fold change vs veh, KIAA1704 /// LOC100996395 / RFU, ING1 / Fold change vs veh, ING1 / RFU, TRMT61B / Fold change vs veh, TRMT61B / RFU, FUBP3 / Fold change vs veh, FUBP3 / RFU, TP53 / Fold change vs veh, TP53 / RFU, TNKS2 / Fold change vs veh, TNKS2 / RFU, ZFP14 / Fold change vs veh, ZFP14 / RFU, ACTR2 / Fold change vs veh, ACTR2 / RFU, PPP3R1 / Fold change vs veh, PPP3R1 / RFU, PIK3R1 / Fold change vs veh, PIK3R1 / RFU, HNRNPA1 / Fold change vs veh, HNRNPA1 / RFU, RNF170 / Fold change vs veh, RNF170 / RFU, ZNF28 / Fold change vs veh, ZNF28 / RFU, RNGTT / Fold change vs veh, RNGTT / RFU, OGT / Fold change vs veh, OGT / RFU, BRD1 / Fold change vs veh, BRD1 / RFU, MARS / Fold change vs veh, MARS / RFU, ZNF655 / Fold change vs veh, ZNF655 / RFU, FAHD1 / Fold change vs veh, FAHD1 / RFU, BDP1 / Fold change vs veh, BDP1 / RFU, LRRCC1 / Fold change vs veh, LRRCC1 / RFU, ARID1A / Fold change vs veh, ARID1A / RFU, ZNF146 / Fold change vs veh, ZNF146 / RFU, ZNF330 / Fold change vs veh, ZNF330 / RFU, GPN3 / Fold change vs veh, GPN3 / RFU, C9orf123 / Fold change vs veh, C9orf123 / RFU, N4BP2L2 / Fold change vs veh, N4BP2L2 / RFU, ARFIP1 / Fold change vs veh, ARFIP1 / RFU, FAM179B / Fold change vs veh, FAM179B / RFU, BCL10 / Fold change vs veh, BCL10 / RFU, UHRF1BP1L / Fold change vs veh, UHRF1BP1L / RFU, BET1 / Fold change vs veh, BET1 / RFU, CNOT2 / Fold change vs veh, CNOT2 / RFU, ZNF268 / Fold change vs veh, ZNF268 / Fold change vs veh, ZNF507 / RFU, DGCR2 / Fold change vs veh, DGCR2 / RFU, WDSUB1 / Fold change vs veh, WDSUB1 / Fold change vs veh, HSP90B1 /// MIR3652 / RFU, ADSS / Fold change vs veh, ADSS / RFU, GK / Fold change vs veh, GK / RFU, ZNF148 / Fold change vs veh, ZNF148 / RFU, TAF9 / Fold change vs veh, TAF9 / RFU, SLC1A5 / Fold change vs veh, SLC1A5 / RFU, SLMO2 / Fold change vs veh, SLMO2 / RFU, ABCC4 / Fold change vs veh, ABCC4 / RFU, LOC101060439 /// RAP1B / Fold change vs veh, LOC101060439 /// RAP1B / RFU, RFX7 / Fold change vs veh, RFX7 / RFU, GTPBP10 / Fold change vs veh, GTPBP10 / RFU, CNEP1R1 / Fold change vs veh, CNEP1R1 / RFU, BIVM-ERCC5 /// ERCC5 / Fold change vs veh, BIVM-ERCC5 /// ERCC5 / RFU, ILF3 / Fold change vs veh, ILF3 / RFU 11762660_at / Fold change /veh 11762660_at / RFU VCAN (11757783_s_at) / Fold change /veh VCAN (11757783_s_at) / RFU DDX43 (11728927_at) / Fold change /veh DDX43 (11728927_at) / RFU KRT8 (11758188_x_at) / Fold change /veh KRT8 (11758188_x_at) / RFU NKD1 (11759106_at) / Fold change /veh NKD1 (11759106_at) / RFU SRD5A1 (11742802_a_at) / Fold change /veh SRD5A1 (11742802_a_at) / RFU TPSAB1 /// TPSB2 (11721975_s_at) / Fold change /veh TPSAB1 /// TPSB2 (11721975_s_at) / RFU GSTM3 (11746129_a_at) / Fold change /veh GSTM3 (11746129_a_at) / RFU IL23R (11737362_x_at) / Fold change /veh IL23R (11737362_x_at) / RFU TMEM51 (11727254_a_at) / Fold change /veh TMEM51 (11727254_a_at) / RFU PIWIL2 (11732686_x_at) / Fold change /veh PIWIL2 (11732686_x_at) / RFU ORM1 (11744905_x_at) / Fold change /veh ORM1 (11744905_x_at) / RFU CCDC152 (11743942_at) / Fold change /veh CCDC152 (11743942_at) / RFU ECM1 (11717891_a_at) / Fold change /veh ECM1 (11717891_a_at) / RFU IL23R (11748794_a_at) / Fold change /veh IL23R (11748794_a_at) / RFU TNFAIP8L3 (11732012_x_at) / Fold change /veh TNFAIP8L3 (11732012_x_at) / RFU MBOAT4 (11741988_at) / Fold change /veh MBOAT4 (11741988_at) / RFU 11764193_at / Fold change /veh 11764193_at / RFU TMEM53 (11763286_at) / Fold change /veh TMEM53 (11763286_at) / RFU MAGEB2 (11727129_at) / Fold change /veh MAGEB2 (11727129_at) / RFU TMEM200A (11744735_a_at) / Fold change /veh TMEM200A (11744735_a_at) / RFU CCDC152 (11751479_a_at) / Fold change /veh CCDC152 (11751479_a_at) / RFU FAM211A (11726209_a_at) / Fold change /veh FAM211A (11726209_a_at) / RFU RGS16 (11746705_a_at) / Fold change /veh RGS16 (11746705_a_at) / RFU VCAN (11755009_s_at) / Fold change /veh VCAN (11755009_s_at) / RFU RHOB (11743442_s_at) / Fold change /veh RHOB (11743442_s_at) / RFU RGS16 (11720943_a_at) / Fold change /veh RGS16 (11720943_a_at) / RFU RGS16 (11720944_at) / Fold change /veh RGS16 (11720944_at) / RFU, VPS4B / Fold change vs veh, VPS4B / RFU, CREB1 / Fold change vs veh, CREB1 / RFU, DNAJC13 / Fold change vs veh, DNAJC13 / RFU, GNAQ / Fold change vs veh, GNAQ / RFU, CDK5R1 / Fold change vs veh, CDK5R1 / RFU, ZRANB3 / Fold change vs veh, ZRANB3 / RFU, CUL4A / Fold change vs veh, CUL4A / RFU, CCNY / Fold change vs veh, CCNY / RFU, UFL1 / Fold change vs veh, UFL1 / RFU, COG3 / Fold change vs veh, COG3 / RFU, DIAPH2 / Fold change vs veh, DIAPH2 / RFU, SKA2 / Fold change vs veh, SKA2 / RFU, AFF3 / Fold change vs veh, AFF3 / RFU, LMF1 / Fold change vs veh, LMF1 / RFU, IPO11 / Fold change vs veh, IPO11 / RFU, DFFB / Fold change vs veh, DFFB / RFU, FOXP1 / Fold change vs veh, FOXP1 / RFU, CARD8 / Fold change vs veh, CARD8 / RFU, STRN3 / Fold change vs veh, STRN3 / RFU, ADK / Fold change vs veh, ADK / RFU, RASSF2 / Fold change vs veh, RASSF2 / RFU, WIPF1 / Fold change vs veh, WIPF1 / RFU, LARP1B / Fold change vs veh, LARP1B / RFU, RASA1 / Fold change vs veh, RASA1 / RFU, RB1 / Fold change vs veh, RB1 / RFU, PPFIA1 / Fold change vs veh, PPFIA1 / RFU, MAT2A / Fold change vs veh, MAT2A / RFU, CCT5 / Fold change vs veh, CCT5 / RFU, WDR92 / Fold change vs veh, WDR92 / RFU, CUX1 / Fold change vs veh, CUX1 / RFU, TTC7A / Fold change vs veh, TTC7A / RFU, TMEM135 / Fold change vs veh, TMEM135 / RFU, DEPTOR / Fold change vs veh, DEPTOR / RFU, CPM / Fold change vs veh, CPM / RFU, DNAJB6 / Fold change vs veh, DNAJB6 / RFU, CACNA2D3 / Fold change vs veh, CACNA2D3 / RFU, DTX4 / Fold change vs veh, DTX4 / RFU, TFCP2 / Fold change vs veh, TFCP2 / RFU, GMCL1 /// GMCL1P1 / Fold change vs veh, GMCL1 /// GMCL1P1 / RFU, AEBP2 / Fold change vs veh, AEBP2 / RFU, SNHG1 /// SNORD22 /// SNORD25 /// SNORD26 /// SNORD27 /// SNORD28 /// SNORD29 /// SNORD31 / Fold change vs veh, SNHG1 /// SNORD22 /// SNORD25 /// SNORD26 /// SNORD27 /// SNORD28 /// SNORD29 /// SNORD31 / Fold change (Aza/veh), C12orf56 (ProbeSet 11735607_a_at) / Fold change (ACY-1035/veh), C12orf56 (ProbeSet 11735607_a_at) / Fold change (Aza/veh), FGFR1OP (ProbeSet 11751329_s_at) / Fold change (ACY-1035/veh), FGFR1OP (ProbeSet 11751329_s_at) / Fold change (Aza/veh), VPS36 (ProbeSet 11739960_a_at) / Fold change (ACY-1035/veh), VPS36 (ProbeSet 11739960_a_at) / RFU SYPL1 (11715823_x_at) / Fold change /veh SYPL1 (11715823_x_at) / RFU IGFBP7 (11715501_s_at) / Fold change /veh IGFBP7 (11715501_s_at) / RFU REEP3 (11722064_at) / Fold change /veh REEP3 (11722064_at) / RFU IGLL1 (11728026_x_at) / Fold change /veh IGLL1 (11728026_x_at): dose or concentration left out as unconfirmed
# Details: MV-4-11 cells, 48 hours
compound,measurement,value
Nc1ncn([C@@H]2O[C@H](CO)[C@@H](O)[C@H]2O)c(=O)n1 [azacitidine],Fold change /veh KRTAP10-2 (11738614_at),0.93
